These molecules were tested against S1P1/EDG1 (Homo sapiens, UniProt P21453) (assay: S1P1 CRE-bla CHOK1 reporter assay, inhibition of Forskolin induced cAMP). Conditions: agonist activity range, S1P1 CRE-bla CHOK1, 2 μM Forskolin; read-out: S1P1 ACTIVITY.
Format: cell-based
Summary of the method: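 Read-out is a FRET β-lactamase substrate (2 h, room temperature) after 4 h, 37 °C compound treatment under 2 μM Forskolin in stable S1P1-transfected CRE-bla CHO-K1 cells. Ten-point curves; non-linear regression gives EC50 for inhibition of Forskolin-stimulated cAMP.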

Chain of S1P1/EDG1 (P21453 whole entry): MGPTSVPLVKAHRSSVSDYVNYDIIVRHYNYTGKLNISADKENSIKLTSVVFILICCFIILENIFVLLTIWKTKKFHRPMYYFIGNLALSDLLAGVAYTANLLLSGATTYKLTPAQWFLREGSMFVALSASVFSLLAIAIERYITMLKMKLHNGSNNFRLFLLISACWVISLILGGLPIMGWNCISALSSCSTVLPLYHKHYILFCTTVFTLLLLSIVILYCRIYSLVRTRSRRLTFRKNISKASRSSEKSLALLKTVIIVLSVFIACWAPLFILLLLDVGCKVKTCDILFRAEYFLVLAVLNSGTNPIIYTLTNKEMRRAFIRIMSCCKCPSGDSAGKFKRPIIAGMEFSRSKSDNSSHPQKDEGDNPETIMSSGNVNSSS

Cc1c[nH]c(CN[C@H]2CCc3c(-c4noc(-c5ccc(OC(C)C)c(C#N)c5)n4)cccc32)n1 [Compound 159] and Cc1cc(CN[C@H]2CCc3c(-c4noc(-c5ccc(OC(C)C)c(C#N)c5)n4)cccc32)[nH]n1 [Compound 162] fall in the same range of EC50: 0.5 to 5 nM for the first, 0.5 to 5 nM for the second.

Compared with CC(C)Oc1ccc(-c2nc(-c3cccc4c3CC[C@@H]4NCc3nc4ccccc4[nH]3)no2)cc1C#N [Compound 160], CC(C)Oc1ccc(-c2nc(-c3cccc4c3CC[C@@H]4NCc3cncs3)no2)cc1C#N [Compound 161] is lower in EC50: 0.5 to 5 nM for the first, 0.05 to 0.5 nM for the second.

First: CCOCCS(=O)(=O)N[C@@H]1CCc2c(-c3noc(-c4ccc(OC(C)C)c(C#N)c4)n3)cccc21 [Compound 165]
Second: CC(C)Oc1ccc(-c2nc(-c3cccc4c3CC[C@H]4NS(=O)(=O)CCCO)no2)cc1C#N [Compound 188]
The EC50 of the first is higher: 0.05 to 0.5 nM for the first, < 0.05 nM for the second. The second is the more potent here.

CC(C)Oc1ccc(-c2nc(-c3cccc4c3CC[C@H]4NS(=O)(=O)C3CC3)no2)cc1C#N [Compound 166] and CC(C)Oc1ccc(-c2nc(-c3cccc4c3CC[C@@H]4NS(=O)(=O)C3CC3)no2)cc1C#N [Compound 167] fall in the same range of EC50: 0.05 to 0.5 nM for the first, 0.05 to 0.5 nM for the second.

First: CC(C)Oc1ccc(-c2nc(-c3cccc4c3CC[C@@H]4NS(=O)(=O)CCC3CCC3)no2)cc1C#N [Compound 168]
Second: CC(C)Oc1ccc(-c2nc(-c3cccc4c3CC[C@@H]4NS(=O)(=O)CCN3CCC3)no2)cc1C#N [Compound 169]
The EC50 of the first is lower: 0.05 to 0.5 nM for the first, 0.5 to 5 nM for the second.

CC(C)Oc1ccc(-c2nc(-c3cccc4c3CC[C@H]4NS(=O)(=O)CCN3CCCC3)no2)cc1C#N [Compound 170] and CC(C)Oc1ccc(-c2nc(-c3cccc4c3CC[C@H]4NS(=O)(=O)CCN3CCCCC3)no2)cc1C#N [Compound 175] fall in the same range of EC50: 0.5 to 5 nM for the first, 0.5 to 5 nM for the second.

First: CC(C)Oc1ccc(-c2nc(-c3cccc4c3CC[C@H]4NS(=O)(=O)CCN3CC[C@@H](O)C3)no2)cc1C#N [Compound 171]
Second: CC(C)Oc1ccc(-c2nc(-c3cccc4c3CC[C@H]4NS(=O)(=O)CCN3CC[C@H](O)C3)no2)cc1C#N [Compound 172]
The EC50 of the first is lower: 0.05 to 0.5 nM for the first, 0.5 to 5 nM for the second.

CC(C)Oc1ccc(-c2nc(-c3cccc4c3CC[C@@H]4NS(=O)(=O)CCN3CC[C@@H](O)C3)no2)cc1C#N [Compound 173] and CC(C)Oc1ccc(-c2nc(-c3cccc4c3CC[C@@H]4NS(=O)(=O)CCN3CC[C@H](O)C3)no2)cc1C#N [Compound 174] fall in the same range of EC50: 0.5 to 5 nM for the first, 0.5 to 5 nM for the second.

CC(C)Oc1ccc(-c2nc(-c3cccc4c3CC[C@H]4NS(=O)(=O)CCN3CCOCC3)no2)cc1C#N [Compound 176] and CC(C)Oc1ccc(-c2nc(-c3cccc4c3CC[C@@H]4NS(=O)(=O)CCN3CCOCC3)no2)cc1C#N [Compound 177] fall in the same range of EC50: 0.5 to 5 nM for the first, 0.5 to 5 nM for the second.

Compared with COC(=O)CCS(=O)(=O)N[C@H]1CCc2c(-c3noc(-c4ccc(OC(C)C)c(C#N)c4)n3)cccc21 [Compound 182], CC(C)Oc1ccc(-c2nc(-c3cccc4c3CC[C@@H]4NS(=O)(=O)CCC(=O)O)no2)cc1C#N [Compound 185] is lower in EC50: 0.05 to 0.5 nM for the first, < 0.05 nM for the second. The second is the more potent here.

First: COC(=O)C(C)(C)CS(=O)(=O)N[C@H]1CCc2c(-c3noc(-c4ccc(OC(C)C)c(C#N)c4)n3)cccc21 [Compound 183]
Second: CNC(=O)CS(=O)(=O)N[C@H]1CCc2c(-c3noc(-c4ccc(OC(C)C)c(C#N)c4)n3)cccc21 [Compound 198]
The EC50 of the first is higher: 0.5 to 5 nM for the first, 0.05 to 0.5 nM for the second.

CC(C)Oc1ccc(-c2nc(-c3cccc4c3CC[C@H]4NS(=O)(=O)CC(=O)O)no2)cc1C#N [Compound 184, (R)-2 (N (4-(5-(3 cyano-4-isopropoxyphenyl)-1,2,4-oxadiazol-3-yl)-2,3-dihydro-1H-inden-1-yl)sulfamoyl)acetic acid] and CC(C)Oc1ccc(-c2nc(-c3cccc4c3CC[C@@H]4NS(=O)(=O)CC(N)=O)no2)cc1C#N [Compound 196] cannot be ordered by EC50: < 0.05 nM for the first, < 0.05 nM for the second.

First: CC(C)Oc1ccc(-c2nc(-c3cccc4c3CC[C@@H]4NS(=O)(=O)CC(=O)N3CC(O)C3)no2)cc1C#N [Compound 189]
Second: CC(C)Oc1ccc(-c2nc(-c3cccc4c3CC[C@H]4NS(=O)(=O)CC(=O)N3CC(O)C3)no2)cc1C#N [Compound 190]
The EC50 of the first is higher: 0.05 to 0.5 nM for the first, < 0.05 nM for the second. The second is the more potent here.

First: CC(C)Oc1ccc(-c2nc(-c3cccc4c3CC[C@@H]4NS(=O)(=O)CC(=O)N3CCOCC3)no2)cc1C#N [Compound 191]
Second: CC(C)Oc1ccc(-c2nc(-c3cccc4c3CC[C@H]4NS(=O)(=O)CC(=O)N3CCOCC3)no2)cc1C#N [Compound 192]
The EC50 of the first is higher: 0.05 to 0.5 nM for the first, < 0.05 nM for the second.

Compared with CC(C)Oc1ccc(-c2nc(-c3cccc4c3CC[C@@H]4NS(=O)(=O)CC(=O)N3CCC(O)CC3)no2)cc1C#N [Compound 193], CC(C)Oc1ccc(-c2nc(-c3cccc4c3CC[C@@H]4NS(=O)(=O)CC(=O)N3CCC3)no2)cc1C#N [Compound 200] is lower in EC50: 0.05 to 0.5 nM for the first, < 0.05 nM for the second. The second is the more potent here.

Compared with CC(C)Oc1ccc(-c2nc(-c3cccc4c3CC[C@H]4NS(=O)(=O)CC(=O)N(C)C)no2)cc1C#N [Compound 194, (R)-2-(N-(4-(5-(3-cyano-4-isopropoxyphenyl)-1,2,4-oxadiazol-3-yl)-2,3-dihydro-1H-inden-1-yl)sulfamoyl)-N,N-dimethylacetamide], CC(C)Oc1ccc(-c2nc(-c3cccc4c3CC[C@@H]4NS(=O)(=O)CC(=O)N(C)C)no2)cc1C#N [Compound 195, (S)-2 (N (4-(5-(3 cyano-4-isopropoxyphenyl)-1,2,4-oxadiazol-3-yl)-2,3-dihydro-1H-inden-1-yl)sulfamoyl)-N,N-dimethylacetamide] is higher in EC50: < 0.05 nM for the first, 0.05 to 0.5 nM for the second.

CC(C)Oc1ccc(-c2nc(-c3cccc4c3CC[C@H]4NS(=O)(=O)CC(N)=O)no2)cc1C#N [Compound 197] and CNC(=O)CS(=O)(=O)N[C@@H]1CCc2c(-c3noc(-c4ccc(OC(C)C)c(C#N)c4)n3)cccc21 [Compound 199] cannot be ordered by EC50: < 0.05 nM for the first, < 0.05 nM for the second.

Compared with CC(C)Oc1ccc(-c2nc(-c3cccc4c3CC[C@H]4NS(=O)(=O)CC(=O)N3CCC3)no2)cc1C#N [Compound 201], CC(C)Oc1ccc(-c2nc(-c3cccc4c3CC[C@H]4NC(=O)N3CCOCC3)no2)cc1C#N [Compound 211] is higher in EC50: < 0.05 nM for the first, 0.05 to 0.5 nM for the second.

Compared with CC(C)Oc1ccc(-c2nc(-c3cccc4c3CC[C@H]4N3CC(C(=O)O)C3)no2)cc1C#N [Compound 202, (R)-1-(4-(5-(3-cyano-4-isopropoxyphenyl)-1,2,4-oxadiazol-3-yl)-2,3-dihydro-1H-inden-1-yl)azetidine-3-carboxylic acid], CC(C)Oc1ccc(-c2nc(-c3cccc4c3CC[C@@H]4N3CC(C(=O)O)C3)no2)cc1C#N [Compound 203] is higher in EC50: < 0.05 nM for the first, 0.05 to 0.5 nM for the second. The first is the more potent here.

CC(C)Oc1ccc(-c2nc(-c3cccc4c3CC[C@H]4N3CC(C(=O)N(C)C)C3)no2)cc1C#N [Compound 204] and CC(C)Oc1ccc(-c2nc(-c3cccc4c3CC[C@@H]4N3CC(C(=O)N(C)C)C3)no2)cc1C#N [Compound 205] fall in the same range of EC50: 0.05 to 0.5 nM for the first, 0.05 to 0.5 nM for the second.

CNC(=O)C1CN([C@H]2CCc3c(-c4noc(-c5ccc(OC(C)C)c(C#N)c5)n4)cccc32)C1 [Compound 206] and CC(C)Oc1ccc(-c2nc(-c3cccc4c3CC[C@@H]4N3CC(C(=O)N4CCC4)C3)no2)cc1C#N [Compound 207] fall in the same range of EC50: 0.05 to 0.5 nM for the first, 0.05 to 0.5 nM for the second.

CC(C)Oc1ccc(-c2nc(-c3cccc4c3CC[C@@H]4N(C)CC(=O)O)no2)cc1C#N [Compound 208] and CC(C)Oc1ccc(-c2nc(-c3cccc4c3CC[C@@H]4N(C)CCO)no2)cc1C#N [Compound 209] fall in the same range of EC50: 0.05 to 0.5 nM for the first, 0.05 to 0.5 nM for the second.

CC(C)Oc1ccc(-c2nc(-c3cccc4c3CC[C@@H]4N(C)C)no2)cc1C#N [Compound 210] gave an EC50 of 0.5 to 5 nM.
